# Source: ChEMBL document CHEMBL4831477, “Structure-Enabled Discovery of Novel Macrocyclic Inhibitors Targeting Glutaminase 1 Allosteric Binding Site” (J Med Chem, 2021)
# Active and inactive are the calls of the source. The rule behind the calls is not given here.
# Key:
# [1] = molecular target: T1, Glutaminase kidney isoform, mitochondrial (Mus musculus) (UniProt D3Z7P3); test: In vivo inhibition of GLS1 in BALB/c mouse xenografted with human HCT-116 cells assessed as reduction in alpha-ketoglutarate level at 200 mg/kg, po; format: functional, organism-based
# T1 sequence (whole entry): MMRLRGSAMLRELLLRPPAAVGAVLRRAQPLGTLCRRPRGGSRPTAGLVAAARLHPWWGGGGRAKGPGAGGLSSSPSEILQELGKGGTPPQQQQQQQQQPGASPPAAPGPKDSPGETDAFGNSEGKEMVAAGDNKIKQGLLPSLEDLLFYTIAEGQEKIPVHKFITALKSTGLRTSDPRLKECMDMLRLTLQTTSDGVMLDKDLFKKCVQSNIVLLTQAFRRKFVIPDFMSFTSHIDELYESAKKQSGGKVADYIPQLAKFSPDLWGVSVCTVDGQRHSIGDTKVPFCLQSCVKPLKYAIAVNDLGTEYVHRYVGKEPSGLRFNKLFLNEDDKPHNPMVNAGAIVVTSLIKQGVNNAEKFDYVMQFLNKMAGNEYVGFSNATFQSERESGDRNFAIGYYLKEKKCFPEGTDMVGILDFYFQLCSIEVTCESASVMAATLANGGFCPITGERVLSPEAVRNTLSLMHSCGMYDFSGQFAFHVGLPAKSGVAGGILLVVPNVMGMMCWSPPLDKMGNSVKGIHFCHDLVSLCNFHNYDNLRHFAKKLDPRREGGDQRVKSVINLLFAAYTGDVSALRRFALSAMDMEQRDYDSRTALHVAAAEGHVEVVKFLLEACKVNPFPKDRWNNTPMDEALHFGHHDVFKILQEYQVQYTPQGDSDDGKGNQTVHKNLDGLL
# [2] = molecular target: T1, Glutaminase kidney isoform, mitochondrial (Mus musculus); test: In vivo inhibition of GLS1 in BALB/c mouse xenografted with human HCT-116 cells assessed as reduction in glutathione level at 200 mg/kg, po; format: functional, organism-based
# [3] = Metabolic stability in human plasma assessed as compound remaining after 2 hrs by LC-MS/MS analysis; format: ADME, cell-free; conditions: read-out: Stability
# [4] = Clearance in Sprague-Dawley rat at 200 mg/kg, po measured upto 72 hrs by LC-MS/MS analysis; format: ADME, organism-based; conditions: in vivo, 200 mg/kg, 72 h
# [5] = fCmax in BALB/c nude mouse plasma xenografted with human HCT-116 cells at 200 mg/kg, po administered twice daily for 28 days; format: ADME, organism-based; conditions: in vivo, 672 h, time 28 day
# [6] = Free plasma protein in mouse; format: ADME, cell-free
# [7] = Half life in Sprague-Dawley rat at 200 mg/kg, po measured upto 72 hrs by LC-MS/MS analysis; format: ADME, organism-based; conditions: in vivo
# [8] = Toxicity in BALB/c nude mouse xenografted with human HCT-116 cells assessed as body weight loss at 200 mg/kg, po administered twice daily for 28 days and measured every 3 days; format: organism-based; conditions: in vivo, 672 h, time 28 day
# [9] = Acute toxicity in BALB/c nude mouse assessed as kidney damage at 200 mg/kg, po administered twice daily for 4 weeks by H and E staining based optical microscopic analysis; format: organism-based; conditions: in vivo, 672 h
# HCT-116 [10] = test: Induction of ROS generation in human HCT-116 cells at 500 nM preincubated for 1 hr with NAC followed by compound addition by measured after 3 hrs DCFH-DA dye based flow cytometric analysis; format: functional, cell-based
# [11] = Acute toxicity in BALB/c nude mouse assessed as spleen damage at 200 mg/kg, po administered twice daily for 4 weeks by H and E staining based optical microscopic analysis; format: organism-based; conditions: in vivo, 672 h
# [12] = Clearance in Sprague-Dawley rat at 5 mg/kg, iv measured upto 72 hrs by LC-MS/MS analysis; format: ADME, organism-based; conditions: Sprague-Dawley, in vivo
# HCT-116 [13] = test: Induction of ROS generation in human HCT-116 cells incubated for 6 hrs by DCFH-DA dye based flow cytometric analysis; format: functional, cell-based; conditions: dose 50-500 nM
# [14] = Apparent volume of distribution in Sprague-Dawley rat at 200 mg/kg, po measured upto 72 hrs by LC-MS/MS analysis; format: ADME, organism-based; conditions: in vivo
# HCT-116 [15] = test: Antitumor activity against human HCT-116 cells xenografted in BALB/c nude mouse assessed as tumor destruction at 200 mg/kg, po administered twice daily measured after 28 days by H and E staining based optical microscopic method; format: functional, organism-based; conditions: time 28.0 day
# HCT-116 [16] = test: Antitumor activity against human HCT-116 cells xenografted in BALB/c nude mouse assessed as karyorrhexis at 200 mg/kg, po administered twice daily measured after 28 days by H and E staining based optical microscopic method; format: functional, organism-based; conditions: time 28.0 day
# [17] = molecular target: T1, Glutaminase kidney isoform, mitochondrial (Mus musculus); test: In vivo inhibition of GLS1 in BALB/c mouse xenografted with human HCT-116 cells assessed as reduction in fumarate level at 200 mg/kg, po; format: functional, organism-based
# MDA-MB-436 = test: Antiproliferative activity against human MDA-MB-436 cells assessed as reduction in cell viability incubated for 72 hrs by MTT assay; format: functional, cell-based; conditions: MDA-MB-436, 72 h
# [18] = Metabolic stability in human liver microsomes assessed as half life at 10 uM preincubated for 5 mins followed by NADPH addition by LC-MS/MS analysis; format: ADME, Microsome
# HCT-116 [19] = test: Antitumor activity against human HCT-116 cells xenografted in BALB/c nude mouse assessed as tumor growth inhibition at 200 mg/kg, po administered twice daily measured after 28 days; format: functional; conditions: Mus musculus, HCT-116, po, 672 h, time 28 day, read-out: TGI
# HCT-116 [20] = test: Inhibition of clone formation in human HCT-116 cells at 0.1 to 2 microM incubated for 14 days by crystal violet staining based assay; format: functional, cell-based; conditions: dose 0.1-2 µM, time 14.0 day
# [21] = AUC(0 to t) in Sprague-Dawley rat at 200 mg/kg, po measured upto 72 hrs by LC-MS/MS analysis; format: ADME, organism-based; parameters: route oral, dose 200 mg/kg, time <=72; conditions: in vivo
# [22] = molecular target: T1, Glutaminase kidney isoform, mitochondrial (Mus musculus); test: In vivo inhibition of GLS1 in BALB/c mouse xenografted with human HCT-116 cells assessed as reduction in aspartate level at 200 mg/kg, po; format: functional, organism-based
# [23] = Metabolic stability in mouse liver microsomes assessed as half life at 10 uM preincubated for 5 mins followed by NADPH addition by LC-MS/MS analysis; format: ADME, Microsome
# [24] = Metabolic stability in mouse liver microsomes assessed as clearance at 10 uM preincubated for 5 mins followed by NADPH addition by LC-MS/MS analysis; format: ADME, Microsome; conditions: read-out: CLH
# [25] = AUC(0 to infinity) in Sprague-Dawley rat at 5 mg/kg, iv measured upto 72 hrs by LC-MS/MS analysis; format: ADME, organism-based; parameters: route intravenous, dose 5 mg/kg, time <=72; conditions: Sprague-Dawley, in vivo
# [26] = Apparent volume of distribution in Sprague-Dawley rat at 5 mg/kg, iv measured upto 72 hrs by LC-MS/MS analysis; format: ADME, organism-based; conditions: in vivo, read-out: Vz
# [27] = molecular target: T1, Glutaminase kidney isoform, mitochondrial (Mus musculus); test: In vivo inhibition of GLS1 in BALB/c mouse xenografted with human HCT-116 cells assessed as increase in glutamine level at 200 mg/kg, po; format: functional, organism-based
# [28] = Toxicity in BALB/c nude mouse xenografted with human HCT-116 cells assessed as tolerability at 200 mg/kg, po administered twice daily measured after 28 days; format: organism-based; conditions: in vivo, 672 h, time 28 day
# [29] = Metabolic stability in mouse plasma assessed as compound remaining after 2 hrs by LC-MS/MS analysis; format: ADME, cell-free; conditions: read-out: Stability
smiles,measurement,setting,value
O=C1Cc2cccc(c2)OCC/C=C/CCOc2cccc(c2)CC(=O)Nc2nnc(s2)CCCCc2ccc(nn2)N1,inhibition,[1],Active
same,inhibition,[2],Active
same,remaining at 2 h,[3],92%
same,CL,[4],61.7 mL/min/kg
same,fCmax,[5],0.21 µM
same,fraction unbound,[6],0.129
same,half-life,[7],5.7 h
same,Activity,[8],Non-Toxic
same,Activity,[9],Non-Toxic
same,Activity,HCT-116 [10],inactive
same,Activity,[11],Non-Toxic
same,clearance,[12],53.3 mL/min/kg
same,Activity,HCT-116 [13],Dose-Dependent Effect
same,Vz,[14],58.6 L/kg
same,Activity,HCT-116 [15],Active
same,Activity,HCT-116 [16],Active
same,inhibition,[17],Active
same,IC50,MDA-MB-436,340 nM
same,half-life at 10 µM,[18],2.72 h
same,inhibition in vivo at 200 mg/kg,HCT-116 [19],39%
same,inhibition,HCT-116 [20],Active
same,AUC(0-t) at 72 h,[21],5920 ng·h/mL
same,inhibition,[22],Active
same,half-life at 10 µM,[23],1.7 h
same,microsomal CLint at 10 µM,[24],7.6 µL/min/mg
same,AUC(0-inf),[25],1670 ng·h/mL
same,Vd,[26],19.7 L/kg
same,inhibition,[27],Active
same,Activity,[28],Non-Toxic
same,remaining at 2 h,[29],89%
